Measured values reported in patent US10166270B2, “Composition and method for affecting cytokines and NF-κB” (priority 2004, dated 2019).

Key:
[1] = tested on: carrageenan-induced paw edema; assay: Carrageenan-induced paw edema; type: in vivo, rat
Description: The carrageenan-induced paw edema assay was used as an in vivo indicator of the anti-inflammatory effects of the phyto-percolate. Carrageenan induces local inflammation and edema when injected into the paw pad of a rat (Di Rosa et al., 1971). The development of paw edema is believed to be biphasic (Vinegar et al., 1969). The initial phase is attributable to the local release of histamine and serotonin (Crunkhon et al., 1971) and the second phase is caused by prostaglandin release as a result of COX activation. […] Each treatment group is compared to control.

NF-κB = assay: EMSA of DNA-binding activity of NF-κB in cultured PBMC; type: cell-based, human; settings: TNF-α (50 ng/ml) added one hour before harvesting
Protocol: (§1) According to this exemplary embodiment, phyto-percolate and the flow-through/F4 were tested as they appeared in their original concentrations right off the columns, only diluted 1:20 and 1:100 as described herein. The culture of peripheral blood mononuclear cells (“PBMC”) is prepared with two vials of frozen PBMCs that were obtained from normal healthy human subjects by a commercial vendor and were added to 2×10 ml medium and centrifuged. PBMCs were resuspended and cultured in RPMI1640/5% FBS for 24 h. (1 vial of frozen cells in 11 ml medium).
Treatment agents for this exemplary method comprise three agents: unseparated phyto-percolate (‘PAZ’), fraction 3 (‘F3’), fraction 4 (‘F4’). Treatment concentration for each was 1:20 & 1:100. An exemplary sample preparation method for each agent by dilution is as follows: First, a 1:10 dilution is prepared by combining 0.7 ml agent (either PAZ, F3 or F4)+6.3 ml RPMI1640/5% FBS to obtain a total volume of 7 ml of a 1:10 solution. […]
Analysis of the effect of phyto-percolate or fractions isolated therefrom on the DNA-binding activity of NF-κB in the nuclear protein fractions of the cultured PBMC was determined as follows in this exemplary embodiment: approximately 18.26 mL of suspended PBMC were added to approximately 18 mL of culture medium and 2 mL of this cell suspension (2,718,000 cells in 2 mL) were seeded into each 60 mm culture dish. […]

human COX-2 = biological target: T1, human COX-2 (Homo sapiens, UniProt P35354); assay: in vitro COX-2 inhibition (arachidonic acid to PGE2, EIA); type: biochemical; settings: read-out: % COX-2 Inhibition (Individual assay values)
T1 construct: host or cells: Sf21 insect cells
T1 sequence (P35354 18-604): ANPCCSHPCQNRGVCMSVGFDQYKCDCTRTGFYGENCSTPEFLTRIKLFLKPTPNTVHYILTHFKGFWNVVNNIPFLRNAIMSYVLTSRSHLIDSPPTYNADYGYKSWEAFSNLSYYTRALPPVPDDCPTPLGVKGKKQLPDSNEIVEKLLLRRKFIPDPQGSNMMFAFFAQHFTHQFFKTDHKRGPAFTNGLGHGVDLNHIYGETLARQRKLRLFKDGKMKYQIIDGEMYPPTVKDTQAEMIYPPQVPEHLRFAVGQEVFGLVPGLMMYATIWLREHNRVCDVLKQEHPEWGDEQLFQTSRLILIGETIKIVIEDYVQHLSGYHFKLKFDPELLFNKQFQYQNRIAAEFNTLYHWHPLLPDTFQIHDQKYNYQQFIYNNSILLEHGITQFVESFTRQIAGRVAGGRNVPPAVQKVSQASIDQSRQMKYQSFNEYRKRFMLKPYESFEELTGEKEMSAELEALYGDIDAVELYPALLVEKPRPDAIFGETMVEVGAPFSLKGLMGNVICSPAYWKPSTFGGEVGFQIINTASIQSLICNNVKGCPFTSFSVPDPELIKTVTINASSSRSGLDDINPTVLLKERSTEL
Protocol: Three separate preparations of the phyto-percolate were screened, using an in vitro assay, for COX-2 inhibition. Riendeau et al., Can. J. Physiol. […] Briefly, this assay measured to conversion of 0.3 μM arachidonic acid to PGE2 by human recombinant insect Sf21 cells expression human COX-2. The incubation buffer contained 100 mM Tris-HCl (pH 7.7), 1 mM glutathione, 1 μM hematin, and 500 μM phenol. PGE2 was quantified using an enzyme-linked immunoassay (EIA).
Sample 1 was a sample of diluted phyto-percolate concentrated approximately 100-fold by drying under N2. Sample 2 was prepared by drying a 4800 μl sample of diluted phyto-percolate under N2 and reconstituting it in 96 μl of ddH2O just prior to assay. Sample 3 was prepared by lyophilizing a 4800 μl sample of diluted phyto-percolate and reconstituting it in 96 μl of ddH2O just prior to assay. The concentrations of phyto-percolate used, 100×, 10×, and IX, refer to 10 μl, 1 μl, and 0.1 μl of sample, respectively, in a final assay volume of 100 μl. […] Each sample was assayed in at least three concentrations and the assays were performed in duplicate.

GM-CSF = assay: ELISA of cytokine secretion by PBMC: GM-CSF; type: cell-based, human; settings: PMA added to cultured PBMC
Protocol: as §1
(§2) Treatment agents for this exemplary method comprise three agents: unseparated phyto-percolate (‘PAZ’), fraction 3 (‘F3’), fraction 4 (‘F4’). Treatment concentration for each was 1:20 & 1:100. […]
(§3) According to this exemplary embodiment, seeding, treatment, and detection is accomplished by the following steps. Two dishes of PBMCs were combined and the small amount of PBMCs was stained with 0.4% Trypan blue and the cell number of PBMCs was counted using known techniques.
(§4) In this embodiment, an enzyme linked immunosorbent assay (“ELISA”) analysis of inflammatory cytokine secretion, a protocol provided in a commercial kit for the parallel quantification of the production of human cytokines was employed. […]

IL-2 = assay: ELISA of cytokine secretion by PBMC: IL-2; type: cell-based, human; settings: PMA added to cultured PBMC (with ionomycin)
Protocol: as §1, §2, §3, §4

IFN-γ = assay: ELISA of cytokine secretion by PBMC: IFN-γ; type: cell-based, human; settings: PMA added to cultured PBMC
Protocol: as §1, §2, §3, §4

IL-17A = assay: ELISA of cytokine secretion by PBMC: IL-17A; type: cell-based, human; settings: PMA added to cultured PBMC
Protocol: as §1, §2, §3, §4

TNF-α = assay: ELISA of cytokine secretion by PBMC: TNF-α; type: cell-based, human; settings: PMA added to cultured PBMC
Protocol: as §1, §2, §3, §4

[2] = 0 hours, oral dose 30 min before carrageenan, n=6

Compound | paw volume, % change from control ([1]; 0 hours) | Mean paw volume ± SD [1, 2] [mL] | Mean paw volume ± SD ([1]; 2 hours) [mL] | paw volume, % change from control ([1]; 2 hours) | Mean paw volume ± SD ([1]; 4 hours) [mL] | paw volume, % change from control ([1]; 4 hours) | Mean paw volume ± SD ([1]; 6 hours) [mL] | paw volume, % change from control ([1]; 6 hours) | Mean paw volume ± SD ([1]; 8 hours) [mL] | paw volume, % change from control ([1]; 8 hours) | Mean paw volume ± SD ([1]; 20 hours) [mL] | paw volume, % change from control ([1]; 20 hours) | other results
COc1ccc2c(c1)c(CC(=O)O)c(C)n2C(=O)c1ccc(Cl)cc1 [Indomethacin, indomethacin] | (1%) | 1.25 ± 0.05 | 2.25 ± 0.23 | (7%) | 2.18 ± 0.22 | (1%) | 2.00 ± 0.22 | (−12%) | 1.83 ± 0.23 | (−22%) | 1.37 ± 0.10 | (−38%) | 
TNF-α |  |  |  |  |  |  |  |  |  |  |  |  | DNA-binding activity of NF-κB, relative level (control = 1.0) (NF-κB): ~2.0
CC(=O)Oc1ccccc1C(=O)O [Aspirin, aspirin] | (1%) | 1.25 ± 0.08 | 2.22 ± 0.28 | (4%) | 2.07 ± 0.23 | (−10%) | 1.92 ± 0.18 | (−20%) | 1.80 ± 0.18 | (−25%) | 1.42 ± 0.16 | (−23%) | 
CS(=O)(=O)c1ccc(C2=C(c3ccccc3)C(=O)OC2)cc1 [rofecoxib] |  |  |  |  |  |  |  |  |  |  |  |  | inhibition at 0.01 µM (human COX-2): 11%; inhibition at 0.03 µM (human COX-2): 16%; inhibition at 0.1 µM (human COX-2): 33%; inhibition at 0.3 µM (human COX-2): 55%; inhibition at 1 µM (human COX-2): 88%
CCCCCCCCCCCCCC(=O)O[C@@H]1[C@@H](C)[C@@]2(O)[C@@H](C=C(CO)C[C@]3(O)C(=O)C(C)=C[C@@H]23)[C@@H]2C(C)(C)[C@]12OC(C)=O [PMA, phorbol myristate acetate] |  |  |  |  |  |  |  |  |  |  |  |  | secretion of GM-CSF (GM-CSF): approximately 50 pg/100,000 cells; secretion of IL-2 (IL-2): approximately 125 pg/100,000 cells; secretion of IFN-γ (IFN-γ): approximately 70 pg/100,000 cells; secretion of IL-17A (IL-17A): approximately 3 pg/100,000 cells; secretion of TNF-α (TNF-α): approximately 50 pg/100,000 cells
